The target of this experiment is PI3Kα (Homo sapiens, UniProt P42336). Description: pAKT S473 ELISA in A549 cells (PI3Kα activation). The arrangement: endogenous in cells; host or cells: A549. The settings on record: for EC50: A549 cells, 15 min treatment, pAKT S473 ELISA, normalised to Emax of 1 μM insulin, read-out: Av EC50; for Emax at 10 µM: A549, 0.25 h, read-out: <50% response at 10 μM. It counts as cell-based. As to the method: EC50 values were determined by quantifying phosphorylation on S473 residues of Akt in A549 human adenocarcinoma cells by ELISA (enzyme linked immunoadsorbent assay, R&D Systems, DYC887BE). A549 cells were seeded into 96-well plates (50,000 cells/well) in DMEM supplemented with 10% foetal bovine serum and 1% penicillin-streptomyocin. Following 24 h in culture cells were starved for 24 h in serum-free DMEM before 15 minute treatment with a concentration response curve of compounds. Experimental compounds were diluted in DMSO into […] 1:3 concentration response curves in polypropylene V-bottom plates (SLS MIC9050). Concentration response curves were diluted to a 3× stock in serum-free DMEM. Standard 8-point concentration response curves were performed at 50, 16.7, 5.6, 1.9, 0.6, 0.2, 0.07, 0.02 μM and serum-free DMEM containing 0.5% DMSO was used as a negative control. […] A549 cells were seeded at 50,000 cells per well in 96-well plates in DMEM (10% FBS+1% P/S). The next day cells were washed once with PBS before addition of serum-free DMEM for 24 h. On the day of treatment cells, were incubated in fresh serum-free DMEM prior to treatment. Compounds solubilised to 10 mM in DMSO were diluted 1:3 in an 8-point concentration response curve in DMSO. Concentration response curves were diluted in serum-free DMEM by transfer into intermediate plates using a BRAVO liquid handler (Agilent). Intermediate plates were then used to treat cell plates using the BRAVO liquid handler. Compound concentration response curves had atop concentration of 50 μM and a final well concentration of 0.5% DMSO. Cell plates were treated for 15 min at 37° C., 5% CO2 before being washed with ice-cold PBS and lysed in lysis buffer 6 (R&D Systems #895561) and freezing at −80° C. Levels of pAKT-S473 were determined using the phospho-AKT (S473) pan-specific Duoset IC ELISA (R&D Systems #DYC887BE) in 96-well white high-binding plates (Corning #3922) according to manufacturer's instructions. Endpoint luminescence was measured using a Sense (Hidex) platereader. […] Data were transformed and EC50 data were determined by variable slope (4 parameters) non-linear regression using Prism 7 (Graphpad).
PI3Kα, sequence (P42336 whole entry): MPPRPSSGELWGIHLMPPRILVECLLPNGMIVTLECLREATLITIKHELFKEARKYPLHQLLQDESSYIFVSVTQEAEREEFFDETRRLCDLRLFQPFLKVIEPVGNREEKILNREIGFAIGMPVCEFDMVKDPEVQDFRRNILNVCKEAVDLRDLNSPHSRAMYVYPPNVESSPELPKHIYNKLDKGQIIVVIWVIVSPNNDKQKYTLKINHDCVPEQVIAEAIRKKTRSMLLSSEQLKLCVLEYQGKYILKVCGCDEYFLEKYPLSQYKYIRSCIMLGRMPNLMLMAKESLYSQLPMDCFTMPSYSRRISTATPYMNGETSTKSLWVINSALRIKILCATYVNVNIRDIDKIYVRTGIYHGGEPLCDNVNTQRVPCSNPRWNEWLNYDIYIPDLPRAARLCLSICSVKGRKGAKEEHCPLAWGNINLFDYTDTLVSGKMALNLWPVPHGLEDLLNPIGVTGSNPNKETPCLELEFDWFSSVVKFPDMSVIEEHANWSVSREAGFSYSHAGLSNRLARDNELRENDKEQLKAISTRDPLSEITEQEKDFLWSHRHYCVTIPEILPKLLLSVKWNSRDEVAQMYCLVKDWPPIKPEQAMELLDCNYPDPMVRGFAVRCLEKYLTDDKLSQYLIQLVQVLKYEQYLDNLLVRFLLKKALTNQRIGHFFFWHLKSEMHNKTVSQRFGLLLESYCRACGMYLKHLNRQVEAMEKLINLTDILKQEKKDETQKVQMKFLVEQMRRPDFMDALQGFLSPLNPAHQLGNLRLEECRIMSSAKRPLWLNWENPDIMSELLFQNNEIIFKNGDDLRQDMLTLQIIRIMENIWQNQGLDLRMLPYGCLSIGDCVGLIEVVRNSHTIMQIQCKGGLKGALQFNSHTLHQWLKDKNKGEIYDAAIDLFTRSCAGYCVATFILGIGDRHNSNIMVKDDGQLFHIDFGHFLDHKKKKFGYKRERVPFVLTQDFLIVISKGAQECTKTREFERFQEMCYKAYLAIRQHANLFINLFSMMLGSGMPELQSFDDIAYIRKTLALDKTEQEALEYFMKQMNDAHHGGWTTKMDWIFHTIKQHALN
PI3Kα, sequence (P27986 whole entry partner): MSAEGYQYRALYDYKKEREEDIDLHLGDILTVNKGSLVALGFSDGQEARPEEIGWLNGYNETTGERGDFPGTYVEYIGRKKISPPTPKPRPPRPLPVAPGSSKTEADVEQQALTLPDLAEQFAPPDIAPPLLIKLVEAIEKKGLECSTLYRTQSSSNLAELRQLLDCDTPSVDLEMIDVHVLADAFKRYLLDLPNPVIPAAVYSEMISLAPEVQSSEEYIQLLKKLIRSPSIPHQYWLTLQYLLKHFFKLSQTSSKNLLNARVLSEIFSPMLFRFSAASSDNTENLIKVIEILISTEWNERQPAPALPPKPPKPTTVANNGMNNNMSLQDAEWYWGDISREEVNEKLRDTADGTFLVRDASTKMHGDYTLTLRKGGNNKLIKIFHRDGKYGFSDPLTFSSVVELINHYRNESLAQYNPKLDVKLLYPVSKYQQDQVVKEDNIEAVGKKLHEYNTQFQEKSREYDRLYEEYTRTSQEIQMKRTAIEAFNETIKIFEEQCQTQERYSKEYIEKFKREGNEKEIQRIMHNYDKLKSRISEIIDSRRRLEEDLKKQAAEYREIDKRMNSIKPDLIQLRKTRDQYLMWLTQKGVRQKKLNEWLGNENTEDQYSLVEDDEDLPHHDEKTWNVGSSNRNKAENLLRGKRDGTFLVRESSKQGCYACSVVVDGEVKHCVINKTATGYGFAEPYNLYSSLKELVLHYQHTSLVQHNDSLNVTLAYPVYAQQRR

For the molecule `COc1cc(N2CCN(C)CC2)ccc1Nc1cc(Nc2cc(C)cc3c2N(C(C)=O)CC3)ccn1` [19 (1958)], the EC50 turned out to be 1.01 µM.
As for `CC(=O)N1CCc2cccc(Nc3ccnc(Nc4cc(C(C)C)nn4C)c3)c21` [70 (2070)], the Emax at 10 µM is < 50% and the concentration giving a half-maximal response (EC50) was 0.39 µM.
`COc1cc(N2CCN(C)CC2)ccc1Nc1cc(Nc2ccc(S(C)(=O)=O)cc2)ccn1` [52 (2038)]: the EC50 is 3.81 µM.
On to `CCC(=O)N1CCc2cccc(Nc3ccnc(Nc4ccc(N5CCN(C)CC5)cc4OC)c3)c21` [20 (1959)], for which the EC50 worked out at 2.28 µM.
The same measure, in the same setting: the result for `CC(=O)N1CCc2cccc(Nc3ccnc(Nc4cccc(Oc5ccccc5)c4)c3)c21` [34 (2010)] reads > 50 µM; that for `COc1cc(N2CCN(C)CC2)ccc1Nc1cc(Nc2cc(C(C)C)nn2C)ccn1` [30 (2000)], 4.89 µM.
The same measure, in the same setting: the same measure for `COCCOc1cc(N2CCN(C)CC2)ccc1Nc1cc(Nc2cccc3c2N(C(C)=O)CC3)ccn1` [33 (2009)]: 5.23 µM; for `CCN1CCN(c2ccc(Nc3cc(Nc4ccncn4)ccn3)cc2)CC1` [80 (2106)]: ≥ 50 µM.
Same read-out and setting: the same measure for `CCN1CCN(c2ccc(Nc3cc(Nc4cc(C(C)C)nn4C)ccn3)cc2)CC1` [77 (2103)]: 2.09 µM; for `CC(=O)N1CCc2cccc(Nc3ccnc(Nc4ccc(N5CCN(C)CC5)cc4C)c3)c21` [95 (2351)]: 14.7 µM.
Regarding `CNC(=O)c1ccccc1Nc1ccnc(Nc2ccc(N3CCOCC3)cc2OC)c1` [9 (1935)], the Emax at 10 µM was < 50% and the EC50 came to 1.58 µM.
As for `CCN1CCN(c2ccc(Nc3cc(Nc4cccc(S(C)(=O)=O)c4)ccn3)cc2)CC1` [82 (2108)], the EC50 is 1.52 µM.
For the molecule `CC(=O)N1CCc2cccc(Nc3ccnc(Nc4ccc(N5CCOCC5)cc4)c3)c21` [38 (2015)], the EC50 worked out at 1.32 µM.
For the molecule `COc1cc(N2CCN(C)CC2)ccc1Nc1cc(Nc2cccc3nccnc23)ccn1` [62 (2056)], the Emax at 10 µM was < 50% and the concentration giving a half-maximal response (EC50) worked out at 1.29 µM.
Consider `CC(=O)N1CCc2cccc(Nc3ccnc(Nc4ccc(C(N)=O)cc4)c3)c21` [35 (2011)], for which the concentration for a half-maximal effect (EC50) turned out to be 4.97 µM.
In the case of `COc1cc(N2CCN(C)CC2)ccc1Nc1nccc(Nc2cccc3c2N(C(C)=O)CC3)c1C` [16 (1944)], the Emax at 10 µM was < 50% and the 50% effective concentration (EC50) was found to be 5.53 µM.
As for `COc1cc(N2CCN(C)CC2)ccc1Nc1nccc(Nc2cccc3c2N(C(C)=O)CC3)c1F` [18 (1951)], the EC50 was 3.08 µM.
As to `CC(=O)N1CCc2cccc(Nc3ccnc(Nc4ccc(C(=O)N5CCOCC5)cc4)c3)c21` [92 (2348)], the 50% effective concentration (EC50) was > 10.4 µM.
For the molecule `CNC(=O)c1cccc(Nc2cc(Nc3cccc4c3N(C(C)=O)CC4)ccn2)c1` [47 (2026)], the Emax at 10 µM is < 50% and the EC50 is 1.76 µM.
Consider `C#Cc1cccc(Nc2cc(Nc3cccc4c3N(C(C)=O)CC4)ccn2)c1` [69 (2069)], for which the EC50 was > 50 µM.
On to `COc1cc(Nc2cc(Nc3ccc4c(c3)N(C(C)=O)CC4)ccn2)cc(OC)c1OC` [6 (1907)], for which the Emax at 10 µM is < 50% and the EC50 is 0.84 µM.
For `COc1cc(N2CCN(C)CC2)ccc1Nc1cc(Nc2cc(C(C)(C)C)nn2C)ccn1` [29 (1998)], the EC50 is 0.89 µM.
On the same count and under the same terms, the same measure for `CC(=O)N1CCc2cccc(Nc3ccnc(Nc4ccc(N5CCN(C)CC5)cc4)c3)c21` [11 (1937)]: 2.64 µM.
`COc1cc(Nc2cc(Nc3cccc4c3N(C(C)=O)CC4)ccn2)cc(OC)c1OC` [R3 (1887)]: the EC50 came to 1.96 µM.
With `COc1cc(N2CCN(C)CC2)ccc1Nc1cc(Nc2cc(-c3ccccc3)nn2C)ccn1` [28 (1995)], the Emax at 10 µM was < 50% and the concentration giving a half-maximal response (EC50) is 1.41 µM.
On to `CC(=O)N1CCc2cccc(Nc3ccnc(Nc4ccc(-c5ccccc5)cn4)c3)c21` [74 (2079)], for which the EC50 is > 50 µM.
Same read-out and setting: the result for `CCN1CCN(c2ccc(Nc3cc(Nc4cccc5c4N(C(C)=O)CC5)ccn3)cc2)CC1` [12 (1938)] reads 1.53 µM.
The same measure, in the same setting: the same measure for `CC(=O)N1CCc2cccc(Nc3ccnc(Nc4ccc(OCc5ccccc5)cc4)c3)c21` [37 (2014)]: > 50 µM; for `COc1cc(C(=O)N2CCOCC2)ccc1Nc1cc(Nc2cccc3c2N(C(C)=O)CC3)ccn1` [91 (2347)]: 2.29 µM.
The same measure, in the same setting: the same measure for `COc1cc(N2CCN(C)CC2)ccc1Nc1cc(Nc2cccc3c2N(C(C)=O)CC3)c(F)cn1` [R2 (1890)]: 1.62 µM.
For the molecule `COc1cc(N2CCN(C)CC2)ccc1Nc1cc(Nc2ncccc2C#N)ccn1` [67 (2066)], the Emax at 10 µM was < 50% and the EC50 was > 50 µM.
The corresponding values for `COc1cc(N2CC3(COC3)C2)ccc1Nc1cc(Nc2cccc3c2N(C(C)=O)CC3)ccn1` [96 (2353)] are < 50% and > 0.505 µM.
`COCC(=O)N1CCc2cccc(Nc3ccnc(Nc4ccc(N5CCN(C)CC5)cc4OC)c3)c21` [17 (1950)]: the EC50 is 4.78 µM.
For `CC(=O)N1CCc2cccc(Nc3ccnc(Nc4cccc(N5CCN(C)CC5)c4)c3)c21` [22 (1968)], the half-maximal effective concentration (EC50) is 7.85 µM.
As for `COc1cc(N2CCN(C)CC2)ccc1Nc1cc(Nc2ccc3scnc3c2)ccn1` [51 (2031)], the EC50 was found to be 0.31 µM.
The same measure, in the same setting: the same measure for `COc1cc(N2CCN(C)CC2)ccc1Nc1cc(Nc2ccccc2)ccn1` [23 (1971)]: 4.53 µM; for `CNC(=O)c1ccc(Nc2cc(Nc3cccc4c3N(C(C)=O)CC4)ccn2)cc1` [42 (2019)]: 1.37 µM.
Take `CCN1CCN(c2ccc(Nc3cc(Nc4cc(C(C)(C)C)nn4C)ccn3)cc2)CC1` [76 (2102)]: the concentration for a half-maximal effect (EC50) was 2.2 µM.
The same measure, in the same setting: the same measure for `COc1ccc(S(C)(=O)=O)cc1Nc1cc(Nc2cccc3c2N(C(C)=O)CC3)ccn1` [R1 (1888)]: 1.55 µM; for `COc1cc(N2CCN(C)CC2)ccc1Nc1cc(Nc2cccc(S(C)(=O)=O)c2)ccn1` [54 (2043)]: 1.22 µM; for `COc1cc(N2CCN(C)CC2)ccc1Nc1cc(Nc2ccncn2)ccn1` [53 (2039)]: 7.85 µM.
Same read-out and setting: the same measure for `CCN1CCN(c2ccc(Nc3cc(Nc4cccc(-n5ccnc5)c4)ccn3)cc2)CC1` [81 (2107)]: 5.33 µM.
For `CCN1CCN(c2ccc(Nc3cccc(Nc4cccc5c4N(C(C)=O)CC5)c3)cc2)CC1` [99 (2346)], the Emax at 10 µM is < 50% and the EC50 was > 50 µM.
As for `CNC(=O)c1ccc(Nc2cc(Nc3cc(C(C)(C)C)nn3C)ccn2)cc1` [89 (2116)], the Emax at 10 µM was < 50% and the EC50 was > 50 µM.
Turning to `COc1cc(N2CCN(Cc3ccc(C)cc3)CC2)ccc1Nc1cc(Nc2cccc3c2N(C(C)=O)CC3)ccn1` [26 (1993)], the concentration for a half-maximal effect (EC50) is > 50 µM.
On the same count and under the same terms, the result for `CNC(=O)c1ccc(Nc2cc(Nc3cccc4c3N(C(C)=O)CC4)ccn2)c(OC)c1` [93 (2349)] reads 5.18 µM.
On the same count and under the same terms, the result for `CCOCC(=O)N1CCc2cccc(Nc3ccnc(Nc4ccc(N5CCN(C)CC5)cc4OC)c3)c21` [21 (1961)] reads 6.68 µM.
Consider `CNC(=O)c1ccc(Nc2cc(Nc3cc(C(C)C)nn3C)ccn2)cc1` [90 (2117)], for which the Emax at 10 µM is < 50% and the 50% effective concentration (EC50) was > 50 µM.
As to `COc1cc(N2CCCCC2)ccc1Nc1cc(Nc2cccc3c2N(C(C)=O)CC3)ccn1` [13 (1941)], the concentration giving a half-maximal response (EC50) was 4.38 µM.
Regarding `CC(=O)N1CCc2cccc(Nc3ccnc(Nc4ccc(C#N)cc4)c3)c21` [41 (2018)], the Emax at 10 µM is < 50% and the half-maximal effective concentration (EC50) was determined as 1.74 µM.
Regarding `CC(=O)N1CCc2ccc(Nc3cc(Nc4cccc5c4N(C(C)=O)CC5)ccn3)cc21` [73 (2073)], the Emax at 10 µM was < 50% and the 50% effective concentration (EC50) is 0.5 µM.
The corresponding values for `CC(=O)N1CCc2cccc(Nc3ccnc(Nc4ccc(C(C)(C)C)cc4)c3)c21` [40 (2017)] are < 50% and 7.4 µM.
As for `COc1cc(N2CCN(C)CC2)ccc1Nc1cc(Nc2cccnc2)ccn1` [64 (2061)], the half-maximal effective concentration (EC50) is 1.58 µM.
Turning to `COc1cc(N2CCN(C(C)C)CC2)ccc1Nc1cc(Nc2cccc3c2N(C(C)=O)CC3)ccn1` [14 (1942)], the half-maximal effective concentration (EC50) was 2.27 µM.
The same measure, in the same setting: the result for `COc1cc(N2CCN(C)CC2)ccc1Nc1cc(Nc2ccc3ncccc3c2)ccn1` [57 (2047)] reads > 50 µM.
The same measure, in the same setting: the result for `COc1cc(N2CCN(C)CC2)ccc1Nc1cc(Nc2ccnc3ccccc23)ccn1` [50 (2029)] reads 1.36 µM.
As to `CNC(=O)c1ccccc1Nc1ccnc(Nc2ccc(N3CCN(C)CC3)cc2OC)c1` [8 (1934)], the Emax at 10 µM was < 50% and the 50% effective concentration (EC50) was > 50 µM.
The matching figures for `CC(=O)N1CCc2cc(Nc3cc(Nc4cc(C(C)(C)C)nn4C)ccn3)ccc21` [83 (2109)]: < 50% and 2.78 µM.
